Assay results published in patent US7842806B2, “Pyridopyrimidone derivatives, preparation thereof, therapeutic use thereof” (sanofi-aventis, priority 2006, dated 2010).
Read-outs that look alike come from different tables or passages of the source.

How the values were obtained:
K562 cells = assay: MTS cell proliferation and viability test, K562 leukemia line; assay type: cell-based, human; settings: incubating for 72 hours, read-out: IC50 (concentration which results in a 50% loss of cell proliferation and viability)
Protocol: […]
(§1) The cell proliferation and viability were determined in a test using 3-(4,5-dimethylthiazol-2-yl)-5-(3-carboxymethoxyphenyl)-2-(4-sulfophenyl)-2H-tetrazolium (MTS) according to Fujishita T. et al., Oncology, 2003, 64 (4), 399-406. In this test, the mitochondrial ability of the living cells to convert MTS to a colored compound is measured after incubating for 72 hours a compound of formula (I) according to the invention. […]

MDA-MB231 cells = assay: MTS cell proliferation and viability test, MDA-MB231 breast cancer line; assay type: cell-based, human; settings: incubating for 72 hours, read-out: IC50 (concentration which results in a 50% loss of cell proliferation and viability)
Protocol: […]
as §1

Row | IC50 (K562 cells; Homo sapiens) [nM] | IC50 (K562 cells) [nM] | IC50 (MDA-MB231 cells) [nM] | Structure (SMILES)
1 | 3 | – | – | Cn1c(=O)c(-c2c(Cl)cccc2Cl)cc2cnc(Nc3ccc4c(c3)OC(CN)O4)nc21 (racemic) [Example 1, (R/S)-2-[[2-(aminomethyl)-1,3-benzodioxol-5-yl]amino]-6-(2,6-dichlorophenyl)-8-methyl-8H-pyrido[2,3-d]pyrimidin-7-one]
2 | – | 20.5 | 183 | CNC(=O)C1COc2ccc(Nc3ncc4cc(-c5c(Cl)cccc5Cl)c(=O)n(C)c4n3)cc2O1 (racemic) [Example 8, (R/S)-N-methylamide of 7-[6-(2,6-dichlorophenyl)-8-methyl-7-oxo-7,8-dihydropyrido[2,3-d]pyrimidin-2-ylamino]-2,3-dihydrobenzo[1,4]dioxin-2-carboxylic acid]
3 | – | – | 10 | Cn1c(=O)c(-c2c(Cl)cccc2Cl)cc2cnc(Nc3ccc4c(c3)COC4)nc21 [Example 2, 6-(2,6-dichlorophenyl)-2-[(1,3-dihydro-5-iso-benzofuranyl)amino]-8-methyl-8H-pyrido[2,3-d]pyrimidin-7-one]
